ChEMBL document CHEMBL1126778, “Adenosine A1 antagonists. 3. Structure-activity relationships on amelioration against scopolamine- or N6-((R)-phenylisopropyl)adenosine-induced cognitive disturbance” (J Med Chem, 1993)
Values joined by “and” are separate entries in the source; they are usually repeats but may differ in a detail not shown here. Equal entries are not always repeated.

Assays:
[1] = test system: Rattus norvegicus; experiment: Acquisition time in Scopolamine induced avoidance test (performed in rat) for antagonistic activity after p.o. administration of 0.31 mg/kg; type: functional; details: route oral
[2] = test system: Mus musculus; experiment: Tested for locomotor activity after oral administration of 5 mg/kg for 120 min; type: functional
[3] = test system: Rattus norvegicus; experiment: Acquisition time in Scopolamine induced avoidance test (performed in rat) for antagonistic activity after p.o. administration of 0.08 mg/kg; type: functional; details: route oral
[4] = test system: Mus musculus; experiment: Retention time in (R)-PIA) induced avoidance test (performed in mice) for antagonistic activity after peroral administration of 0.02 mg/kg
[5] = test system: Rattus norvegicus; experiment: Acquisition time in Scopolamine induced avoidance test (performed in rat) for antagonistic activity after p.o. administration of 5 mg/kg; type: functional; details: route oral
[6] = test system: Mus musculus; experiment: Acquisition time in (R)-PIA) induced avoidance test (performed in mice) for antagonistic activity after peroral administration of 0.02 mg/kg; details: route oral
[7] = test system: Rattus norvegicus; experiment: Retention time in Scopolamine induced avoidance test (performed in rat) for antagonistic activity after peroral administration of 1.25 mg/kg; type: functional, organism-based; set-up: dose 1.25 mg/kg
[8] = test system: Mus musculus; experiment: Retention time in (R)-PIA) induced avoidance test (performed in mice) for antagonistic activity after p.o. administration of 1.25 mg/kg; type: functional, organism-based; set-up: dose 1.25 mg/kg
[9] = test system: Mus musculus; experiment: Acquisition time in (R)-PIA) induced avoidance test (performed in mice) for antagonistic activity after peroral administration of 5 mg/kg; type: functional; details: route oral
[10] = test system: Rattus norvegicus; experiment: Acquisition time in Scopolamine induced avoidance test (performed in rat) for antagonistic activity after peroral administration of 1.25 mg/kg; type: functional; details: route oral
[11] = test system: Mus musculus; experiment: Acquisition time in (R)-PIA) induced avoidance test (performed in mice) for antagonistic activity after p.o. administration of 1.25 mg/kg; type: functional; details: route oral
[12] = test system: Rattus norvegicus; experiment: Retention time in Scopolamine induced avoidance test (performed in rat) for antagonistic activity after p.o. administration of 0.31 mg/kg; type: functional, organism-based; set-up: dose 0.31 mg/kg
[13] = test system: Rattus norvegicus; experiment: Acquisition time in Scopolamine induced avoidance test (performed in rat) for antagonistic activity after peroral administration of 20 mg/kg; type: functional; details: route oral
[14] = test system: Mus musculus; experiment: Retention time in (R)-PIA) induced avoidance test (performed in mice) for antagonistic activity after peroral administration of 0.08 mg/kg; type: functional, organism-based; set-up: dose 0.08 mg/kg
[15] = test system: Mus musculus; experiment: Acquisition time in (R)-PIA) induced avoidance test (performed in mice) for antagonistic activity after peroral administration of 0.08 mg/kg; type: functional; details: route oral
[16] = test system: Rattus norvegicus; experiment: Retention time in Scopolamine induced avoidance test (performed in rat) for antagonistic activity after p.o. administration of 0.08 mg/kg; type: functional, organism-based; set-up: dose 0.08 mg/kg
[17] = test system: Rattus norvegicus; experiment: Retention time in Scopolamine induced avoidance test (performed in rat) for antagonistic activity after peroral administration of 20 mg/kg (n=10); type: functional, organism-based; set-up: dose 20 mg/kg
[18] = test system: Mus musculus; experiment: Retention time in (R)-PIA) induced avoidance test (performed in mice) for antagonistic activity after peroral administration of 5 mg/kg; type: functional, organism-based; set-up: dose 5 mg/kg
[19] = test system: Rattus norvegicus; experiment: Retention time in Scopolamine induced avoidance test (performed in […]) for antagonistic activity after peroral administration of 5 mg/kg; type: functional, organism-based; set-up: dose 5 mg/kg
[20] = test system: Mus musculus; experiment: Retention time in (R)-PIA) induced avoidance test (performed in mice) for antagonistic activity after peroral administration of 0.31 mg/kg; type: functional, organism-based; set-up: dose 0.31 mg/kg
[21] = test system: Mus musculus; experiment: Tested for locomotor activity after oral administration of 1.25 mg/kg for 120 min; type: functional
[22] = test system: Mus musculus; experiment: Acquisition time in (R)-PIA) induced avoidance test (performed in mice) for antagonistic activity after p.o. administration of 0.31 mg/kg; type: functional; details: route oral
[23] = molecular target: Adenosine A2 receptor (Rattus norvegicus, UniProt P29276+P30543); experiment: Binding affinity at Adenosine A2 receptor from rat striatal membranes by N-[3H] ethyladenosin-5'- uronamide displacement.
[24] = test system: Rattus norvegicus; experiment: Acquisition time in Scopolamine induced avoidance test (performed in rat) for antagonistic activity after peroral administration of 1.25 mg/kg (n=20); type: functional; details: route oral
[25] = test system: Rattus norvegicus; experiment: Retention time in Scopolamine induced avoidance test (performed in rat) for antagonistic activity after peroral administration of 20 mg/kg (n=19); type: functional, organism-based; set-up: dose 20 mg/kg
[26] = test system: Mus musculus; experiment: Retention time in (R)-PIA) induced avoidance test (performed in mice) for antagonistic activity after peroral administration of 0.31 mg/kg (n=15) (P<0.005); type: functional, organism-based; set-up: dose 0.31 mg/kg
[27] = test system: Mus musculus; experiment: Acquisition time in (R)-PIA) induced avoidance test (performed in mice) for antagonistic activity after peroral administration of 0.31 mg/kg (n=15); type: functional; details: route oral
[28] = test system: Rattus norvegicus; experiment: Retention time in Scopolamine induced avoidance test (performed in rat) for antagonistic activity after peroral administration of 0.31 mg/kg (n=15); type: functional, organism-based; set-up: dose 0.31 mg/kg
[29] = test system: Rattus norvegicus; experiment: Retention time in Scopolamine induced avoidance test (performed in rat) for antagonistic activity after peroral administration of 0.02 mg/kg; type: functional, organism-based; set-up: dose 0.02 mg/kg
[30] = test system: Rattus norvegicus; experiment: Acquisition time in Scopolamine induced avoidance test (performed in rat) for antagonistic activity after peroral administration of 0.31 mg/kg (n=15); type: functional; details: route oral
[31] = test system: Rattus norvegicus; experiment: Retention time in Scopolamine induced avoidance test (performed in rat) for antagonistic activity after peroral administration of 20 mg/kg (n=14); type: functional, organism-based; set-up: dose 20 mg/kg
[32] = test system: Rattus norvegicus; experiment: Acquisition time in Scopolamine induced avoidance test (performed in rat) for antagonistic activity after peroral administration of 0.02 mg/kg; details: route oral
[33] = test system: Rattus norvegicus; experiment: Acquisition time in Scopolamine induced avoidance test (performed in rat) for antagonistic activity after peroral administration of 0.02 mg/kg; type: functional; details: route oral
[34] = molecular target: Adenosine A2 receptor (Homo sapiens, UniProt P29275+P29274); experiment: Binding affinity against Adenosine A2 receptor from human platelets with [125I]-N6-aminobenzyladenosine
[35] = test system: Rattus norvegicus; experiment: Retention time in Scopolamine induced avoidance test (performed in rat) for antagonistic activity after peroral administration of 5 mg/kg; type: functional, organism-based; set-up: dose 5 mg/kg
[36] = test system: Mus musculus; experiment: Tested for locomotor activity after oral administration of 40 mg/kg for 120 min; type: functional
[37] = test system: Mus musculus; experiment: Tested for locomotor activity after oral administration of 10 mg/kg for 120 min; type: functional
[38] = test system: Mus musculus; experiment: Tested for locomotor activity after oral administration of […] for 120 min; type: functional
[39] = test system: Mus musculus; experiment: Acquisition time in (R)-PIA) induced avoidance test (performed in mice) for antagonistic activity after peroral administration of 20 mg/kg (n=15); type: functional; details: route oral
[40] = test system: Rattus norvegicus; experiment: Retention time in Scopolamine induced avoidance test (performed in […]) for antagonistic activity after peroral administration of 1.25 mg/kg (n=12) (P<0.01); type: functional, organism-based; set-up: dose 1.25 mg/kg
[41] = test system: Mus musculus; experiment: Retention time in (R)-PIA) induced avoidance test (performed in mice) for antagonistic activity after peroral administration of 20 mg/kg (n=15) (P<0.005); type: functional, organism-based; set-up: dose 20 mg/kg
[42] = test system: Rattus norvegicus; experiment: Acquisition time in Scopolamine induced avoidance test (performed in rat) for antagonistic activity after peroral administration of 1.25 mg/kg (n=12); type: functional; details: route oral

Row | Ki [23] | SMILES | Acquisition time [1] | Acquisition time [3] | Retention time [4] | Acquisition time [5] | Acquisition time [6] | Retention time [7] | Retention time [8] | Acquisition time [9] | Acquisition time [10] | Acquisition time [11] | Retention time [12] | Acquisition time [13] | Retention time [14] | Acquisition time [15] | Retention time [16] | Retention time [18] | Retention time [19] | Retention time [20] | Acquisition time [22] | also measured
1 |  | CCCN1C(=O)N2CC(CC)N=C2c2[nH]c(C34CC5CC(CC3C5)C4)nc21 (racemic) | 17.3 s | 21.3 s | 168 s | 22.5 s | 23 s | 40.8 s | 231 s | 24.9 s | 14.1 s | 21.2 s | 221 s | 26.6 s | 196 s | 23.5 s | 251 s | 277 s | 66.3 s | 292 s | 22.7 s | Locomotor activity [2]: 6907 Counts; Retention time [17]: 21 s; Locomotor [21]: 5761 Counts
2 | > 100000 nM | CCCn1c(=O)c2nc(C3CCC(=O)C3)[nH]c2n(CCc2ccc(N)cc2)c1=O (centres undefined) | 13.1 s | 10.5 s | 73.9 s | 10.2 s | 14.2 s | 163 s | 19.1 s | 12.9 s |  | 14.6 s | 109 s | 13.6 s | 18.7 s | 16.4 s | 119 s | 67.7 s | 108 s | 23.4 s | 17.5 s | Acquisition time [24]: 12.1 s; Retention time [25]: 117 s
3 |  | CC(C)Cn1c(=O)n(C)c(=O)c2[nH]c(C(C3CC3)C3CC3)nc21 |  | 7.1 s |  | 11.5 s |  | 22.8 s | 349 s | 12.5 s | 11.8 s | 19.9 s |  | 9.6 s | 171 s | 25.7 s | 17.6 s | 359 s | 9.9 s |  |  | Retention time [26]: 370 s; Acquisition time [27]: 26.4 s; Retention time [28]: 50.9 s; Retention time [29]: 17.6 s; Acquisition time [30]: 8.3 s; Retention time [31]: 14.1 s; Acquisition time [32]: 10.1 s
4 | 430 nM | CCCn1c(=O)c2nc(C3CCCC3)[nH]c2n(CCc2ccc(N)cc2)c1=O | 11.1 s | 20.8 s |  | 12.3 s |  |  | 152 s and 177 s |  |  |  | 255 s |  |  | 21.2 s | 160 s |  |  | 113 s |  | Acquisition time [33]: 25.7 s; Ki [34]: 2000 nM; Retention time [35]: 255 s; Locomotor activity [36]: 5867 Counts; Locomotor activity [37]: 6693 Counts; Locomotor activity [38]: 6224 Counts; Retention time [29]: 151 s; Acquisition time [39]: 23.5 s; Acquisition time ([11]; 1.25 mg/kg): 28.7 s and 23.1 s; Retention time [40]: 384 s; Retention time [41]: 318 s; Acquisition time [42]: 18.3 s
